Measured values from patent US20220024905A1, “CRYSTALLINE FORM OF PROPANAMIDE DERIVATIVE AND PREPARATION METHOD THEREFOR” (NHWA PHARMA. CORPORATION, priority 2018, published 2022).
Like-named read-outs stand apart in the source and are kept apart here.

Legend:
[1] = Mechanical stress of the crystal form (ball milling, PXRD); assay type: physicochemical; conditions: for Crystal form after ball milling: ball mill 400 r/min, PXRD, duplicate mortars; for change of crystal form under ball milling pressure: ball milled for 30 min, 4 h and 6 h
Protocol: Samples were taken when the ball milled at 30 min, 4 h and 6 h respectively, and then for PXRD test. The change of crystal form was observed, and the experiment was carried out parallelly in duplicate.

[2] = Crystalline stability: stability factors test at high humidity, high temperature and light (PXRD and HPLC content); assay type: physicochemical; conditions: for Content (%): HPLC content (w/w, %); for Crystal form: PXRD; for content (all conditions) / morphology of crystal form: high humidity, high temperature and light, each for 10 days
Source text: The samples were taken at day 5 and day 10 respectively for PXRD (polycrystalline X ray diffraction) detection and HPLC content (w/w, %) determination, and the results were compared with that of day 0.

[3] = Pharmacokinetics of Crystal Form A and Crystal Form B capsules in beagle dogs; assay type: in vivo
Protocol: There were 12 beagle dogs for the experiment, half male and half female, weighing 11.0-14.1 kg, provided by the Teaching and Experimental Ground of Agricultural College of Shanghai Jiao Tong University. The animals were raised in single cage, and the feeding amount can be adjusted according to the weight or feed intake of the animals. The animals can drink water freely, with 12/12 h light/dark cycle adjustment, constant temperature of 23±1° C., humidity of 50-60%. On the day of administration, the experimental animals were fasted overnight before administration. […] The animals were weighed on the day of administration, and the dosage was determined according to their body weight. The above-mentioned grouped beagle dogs were administered according to the method in Table 5 below. [table] 1 mL of whole blood was collected from the cephalic vein at blood collection time points of 0.0830, 0.250, 0.500, 1.00, 2.00, 4.00, 8.00, 24.00 h after administration. […] The analytical method was performed by liquid chromatography tandem triple quadrupole mass spectrometry (LC MS/MS). […] The peak concentration (Cmax) and the peak time (Tmax) were obtained from the plasma concentration-time curve graph. The log-linear trapezoidal method (see: Gabrielsson J, Weiner D. Pharmacokinetic and pharmacodynamic data analysis: concepts and applications[M]. CRC Press, 2001, pages 141-146) was used to calculate the following parameters: elimination phase half-life (T1/2), mean retention time extrapolated from zero time point to infinity (MRT0-inf), mean retention time from zero time point to the last detectable concentration time point (MRT0-last), the area under the plasma concentration-time curve from the zero time point to the last detectable concentration time point (AUC0-last), and the area under the plasma concentration-time curve extrapolated from the zero time point to infinity (AUC0-inf). The experimental data was expressed as the mean (Mean)±standard deviation (S.D.). The excel software t-test was used for statistical comparison.

[4] = Day 10 at high humidity (R.H. 92.5%)
[5] = Day 10 at high temperature (60° C.)
[6] = beagle dogs, PO 5 mg/kg, capsule, n = 6
[7] = beagle dogs, PO 5 mg/kg, capsule, x ± s, n = 6

| SMILES | Crystal form after ball milling ([1]; 30 min) | Crystal form after ball milling ([1]; 4 h) | Crystal form after ball milling ([1]; 6 h) | change of crystal form under ball milling pressure [1] | Content (%) ([2]; Day 0) | Crystal form ([2]; Day 0) | Content (%) [2, 4] [%] | Crystal form [2, 4] | Content (%) [2, 5] [%] | Crystal form [2, 5] | Content (%) ([2]; Day 10 at light (4500±500 lx)) | Crystal form ([2]; Day 10 at light (4500±500 lx)) | content (all conditions) [2] [%] | morphology of crystal form [2] | further results |
| --- | --- | --- | --- | --- | --- | --- | --- | --- | --- | --- | --- | --- | --- | --- | --- |
| CN1CCc2ccc(OCCCN3CCC(c4noc5cc(F)ccc45)CC3)cc2C1=O [Crystal Form A, 7-(3-(4-(6-fluorobenzo[d]isoazol-3-yl)piperidin-1-yl)propoxy)-2-methyl-3,4-dihydroisoquinolin-1(2H)-one] | Crystal Form A | Crystal Form A | Crystal Form A | its crystal form did not change | 97.21 | Crystal Form A | 97.18 | Crystal Form A | 97.15 | Crystal Form A | 97.13 | Crystal Form A | ≥ 97.0 | stable | half-life ([3]; both sexes, beagle, dog, plasma, po, 5 mg/kg, beagle dogs, PO 5 mg/kg, capsule, n = 6): 2.9 h; Tmax ([3]; both sexes, beagle, dog, plasma, po, 5 mg/kg, beagle dogs, PO 5 mg/kg, capsule, n = 6, read-out: Tmax): 2.6 h; AUC(0-t) ([3]; both sexes, beagle, dog, plasma, po, 5 mg/kg, beagle dogs, PO 5 mg/kg, capsule, x ± s, n = 6): 2840 ± 77.8 ng·h/mL; AUC0-inf ([3]; both sexes, beagle, dog, plasma, po, 5 mg/kg, beagle dogs, PO 5 mg/kg, capsule, x ± s, n = 6, read-out: AUC0-inf): 2990 ± 82 ng·h/mL; Cmax ([3]; both sexes, beagle, dog, plasma, po, 5 mg/kg, beagle dogs, PO 5 mg/kg, capsule, x ± s, n = 6, read-out: Cmax): 645 ± 37.2 ng/mL; bioavailability ([3]; both sexes, beagle, dog, plasma, po, 5 mg/kg, read-out: relative bioavailability (F)): 137% |
| CN1CCc2ccc(OCCCN3CCC(c4noc5cc(F)ccc45)CC3)cc2C1=O [Crystal Form B, 7-(3-(4-(6-fluorobenzo[d]isoazol-3-yl)piperidin-1-yl)propoxy)-2-methyl-3,4-dihydroisoquinolin-1(2H)-one] | Crystal Form B | Crystal Form B + | Crystal Form B + | its crystal form changed significantly | 96.70 | Crystal Form B | 96.67 | Crystal Form B + | 96.65 | Crystal Form B + | 96.69 | Crystal Form B + | ≥ 96.0 | could not remain stable | T1/2 [3, 6]: 2.1 h; Tmax [3, 6]: 1.7 h; AUC0-inf [3, 7]: 2186 ± 82.1 ng·h/mL; AUC0-last [3, 7]: 2039 ± 81.9 ng·h/mL; Cmax [3, 7]: 426 ± 32.75 ng/mL |
